Measurements as given in the NIST ThermoML archive (doi:10.1021/je050159x).

Columns and labels:
[1] = for mass density: 101.33 kPa, Liquid
[2] = xn = mol fraction of the nth substance listed

OCc1ccccc1 [benzenemethanol]
[1]
Settings | mass density [kg/m3] | surface tension liquid-gas [mN/m]
293.15 K | 1045.2 | 39.05
298.15 K | 1041.4 | 38.58
303.15 K | – | 38.12
308.15 K | – | 37.63
313.15 K | 1029.8 | 37.16
318.15 K | – | 36.63
323.15 K | – | 36.18

CCCCCC [hexane] + OCc1ccccc1
[2], x1 = 1
Settings | surface tension liquid-gas [mN/m]
293.15 K | 18.56
298.15 K | 18.03
303.15 K | 17.44
308.15 K | 16.92
313.15 K | 16.38

CCCCCCCCC [nonane] + OCc1ccccc1
[2], x1 = 1
Settings | surface tension liquid-gas [mN/m]
293.15 K | 23.04
298.15 K | 22.49
303.15 K | 22.04
308.15 K | 21.49
313.15 K | 20.94
318.15 K | 20.47
323.15 K | 19.98

CCCCCCCCC [nonane]
[1]
Settings | mass density [kg/m3] | surface tension liquid-gas [mN/m]
293.15 K | 717.7 | 23.04
298.15 K | 713.9 | 22.49
303.15 K | – | 22.04
308.15 K | – | 21.49
313.15 K | 694.2 | 20.94
318.15 K | – | 20.47
323.15 K | – | 19.98

CCCCCCC [heptane]
[1]
Settings | mass density [kg/m3] | surface tension liquid-gas [mN/m]
293.15 K | 696 | 20.05
298.15 K | 691.9 | 19.54
303.15 K | – | 19.1
308.15 K | – | 18.58
313.15 K | 680 | 18.08
318.15 K | – | 17.6
323.15 K | – | 17.06

OCc1ccccc1 [benzenemethanol] + CCCCCCC
surface tension liquid-gas [mN/m], [2]
Settings | x2 = 0 | x2 = 0.0065 | x2 = 0.009 | x2 = 0.0112 | x2 = 0.0238 | x2 = 0.0306 | x2 = 0.0445 | x2 = 0.067
293.15 K | 39.05 | 37.77 | 37.07 | – | 33.61 | 32.37 | 28.84 | 26.09
298.15 K | 38.58 | 37.47 | 36.87 | 34.69 | 33.83 | 32.58 | 29.16 | 26.47
303.15 K | 38.12 | 37.1 | 36.62 | 35.02 | 34.05 | 32.82 | 29.43 | 26.89
308.15 K | 37.63 | 36.78 | 36.41 | 35.28 | 34.27 | 33.04 | 29.68 | 27.27
313.15 K | 37.16 | 36.49 | 36.16 | 35.53 | 34.48 | 33.24 | 30 | 27.7
318.15 K | 36.63 | 36.18 | 35.95 | 35.83 | 34.7 | 33.46 | 30.3 | 28.08
323.15 K | 36.18 | 35.92 | 35.74 | 36.11 | 34.95 | 33.68 | 30.61 | 28.46

OCc1ccccc1 [benzenemethanol] + CCCCCC
surface tension liquid-gas [mN/m], [2]
Settings | x2 = 0 | x2 = 0.0068 | x2 = 0.0085 | x2 = 0.0198 | x2 = 0.0215 | x2 = 0.0264 | x2 = 0.0493 | x2 = 0.07
293.15 K | 39.05 | 37.39 | 37.24 | 34.45 | 33.73 | 33.22 | 30.61 | 27.46
298.15 K | 38.58 | 37.1 | 36.85 | 34.74 | 34.04 | 33.56 | 31.06 | 27.96
303.15 K | 38.12 | 36.84 | 36.41 | 35.03 | 34.38 | 33.86 | 31.54 | 28.72
308.15 K | 37.63 | 36.53 | 36.01 | 35.35 | 34.69 | 34.25 | 31.92 | 29.29
313.15 K | 37.16 | 36.3 | 35.6 | 35.63 | 34.99 | 34.59 | 32.35 | 29.9

CCCCCC [hexane]
[1]
Settings | mass density [kg/m3] | surface tension liquid-gas [mN/m]
293.15 K | 660.2 | 18.56
298.15 K | 655.4 | 18.03
303.15 K | – | 17.44
308.15 K | – | 16.92
313.15 K | 641.4 | 16.38

OCc1ccccc1 [benzenemethanol] + C1CCCCC1
surface tension liquid-gas [mN/m], [2]
Settings | x2 = 0 | x2 = 0.0068 | x2 = 0.0079 | x2 = 0.0107 | x2 = 0.0202 | x2 = 0.0312 | x2 = 0.0409 | x2 = 0.0655
293.15 K | 39.05 | 37.88 | 37.73 | 37.48 | 37.07 | 36.53 | 35.88 | 34.14
298.15 K | 38.58 | 37.43 | 37.39 | 37.15 | 36.68 | 36.25 | 35.66 | 34.04
303.15 K | 38.12 | 37.06 | 36.93 | 36.74 | 36.32 | 35.98 | 35.41 | 33.94
308.15 K | 37.63 | 36.66 | 36.54 | 36.38 | 35.92 | 35.73 | 35.22 | 33.82
313.15 K | 37.16 | 36.29 | 36.12 | 35.99 | 35.58 | 35.47 | 34.96 | 33.72
318.15 K | 36.63 | 35.84 | 35.74 | 35.66 | 35.24 | 35.22 | 34.77 | 33.61
323.15 K | 36.18 | 35.5 | 35.32 | 35.25 | 34.86 | 34.96 | 34.53 | 33.5

C1CCCCC1 [cyclohexane]
[1]
Settings | mass density [kg/m3] | surface tension liquid-gas [mN/m]
293.15 K | 778.6 | 25.06
298.15 K | 773.9 | 24.45
303.15 K | – | 23.87
308.15 K | – | 23.21
313.15 K | 759.6 | 22.71
318.15 K | – | 22.05
323.15 K | – | 21.45

C1CCCCC1 [cyclohexane] + OCc1ccccc1
[2], x1 = 1
Settings | surface tension liquid-gas [mN/m]
293.15 K | 25.06
298.15 K | 24.45
303.15 K | 23.87
308.15 K | 23.21
313.15 K | 22.71
318.15 K | 22.05
323.15 K | 21.45

CCCCCCC [heptane] + OCc1ccccc1
[2], x1 = 1
Settings | surface tension liquid-gas [mN/m]
293.15 K | 20.05
298.15 K | 19.54
303.15 K | 19.1
308.15 K | 18.58
313.15 K | 18.08
318.15 K | 17.6
323.15 K | 17.06

OCc1ccccc1 [benzenemethanol] + CCCCCCCCC
surface tension liquid-gas [mN/m], [2]
Settings | x2 = 0 | x2 = 0.0061 | x2 = 0.008 | x2 = 0.0116 | x2 = 0.0204 | x2 = 0.0329 | x2 = 0.0408 | x2 = 0.0668
293.15 K | 39.05 | 36.83 | 36.33 | 35.34 | 32.52 | 30.44 | 28.73 | 26.66
298.15 K | 38.58 | 36.4 | 35.95 | 35.13 | 32.31 | 30.23 | 28.52 | 26.56
303.15 K | 38.12 | 35.85 | 35.52 | 34.59 | 32.02 | 30 | 28.22 | 26.38
308.15 K | 37.63 | 35.51 | 35.21 | 34.33 | 31.83 | 29.85 | 28.03 | 26.28
313.15 K | 37.16 | 35.03 | 34.84 | 33.98 | 31.61 | 29.62 | 27.82 | 26.19
318.15 K | 36.63 | 34.61 | 34.5 | 33.67 | 31.41 | 29.44 | 27.67 | 26.12
323.15 K | 36.18 | 34.25 | 34.16 | 33.32 | 31.22 | 29.25 | 27.46 | 26.02
